One assay has as its target T1, GLUT1 (Homo sapiens, UniProt P11166).
T1 sequence (P11166 1-492): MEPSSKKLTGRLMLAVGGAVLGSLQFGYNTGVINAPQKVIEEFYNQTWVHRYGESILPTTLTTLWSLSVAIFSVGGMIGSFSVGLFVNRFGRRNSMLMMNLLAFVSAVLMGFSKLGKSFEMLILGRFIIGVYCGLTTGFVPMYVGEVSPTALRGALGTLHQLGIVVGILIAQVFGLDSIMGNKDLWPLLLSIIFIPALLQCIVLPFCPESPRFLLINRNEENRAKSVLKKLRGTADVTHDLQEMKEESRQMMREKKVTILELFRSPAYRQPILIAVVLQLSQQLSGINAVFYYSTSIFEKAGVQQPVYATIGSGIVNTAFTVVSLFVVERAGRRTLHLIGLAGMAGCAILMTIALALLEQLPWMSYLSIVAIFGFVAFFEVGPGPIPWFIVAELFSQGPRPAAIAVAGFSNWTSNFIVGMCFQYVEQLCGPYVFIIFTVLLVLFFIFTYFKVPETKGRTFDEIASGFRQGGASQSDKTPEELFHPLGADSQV
The settings on record: cited from earlier work.

The test system of the next assay is mitochondrial complex I. Put plainly: Mitochondrial ETC complex activity using PMP-permeabilized cells. It counts as cell-based. As for the experimental part: Mitochondrial ETC complex activity measurements using PMP-Measurements of mitochondrial ETC complex activity were performed using the Agilent Seahorse Assay with XF PMP (Agilent, Santa Clara, CA) according to the manufacturer's instructions. Mitochondrial assay solution (MAS) was prepared with 220 mM mannitol, 70 mM sucrose, 10 mM KH2PO4, 5 mM MgCl2, 2 mM HEPES, 1 mM EGTA, and 0.2% (w/v) fatty acid free BSA. Cells were gen Ly washed with MAS and cell media was replaced with MAS supplemented with 4 mM adenosine diphosphate (ADP), 10 mM pyruvate, and 1 nM PMP. After calibration, the test was prompμLy carried out by measuring baseline with two cycles of 0.5 min mixing, 0.5 min waiting, and 2 min measuring. Following the baseline measurements, DMSO, test compounds or 2 μM rotenone, 10 mM succinate, 2 μM antimycin A, and a combination of 10 mM ascorbate and 100 μM TMPD were sequentially injected. The experiment data were then normalized to cell counts using Biotek Cytation 1 (BioTek Instruments, Winooski, VT, USA).
Mitochondrial ETC complex activity was measured using the Agilent Seahorse Assay with XF permeabilizer (PMP; Agilent) in compliance with the manufacturer's protocol. […] Following calibration, the baseline OCR was measured with cycles of 0.5-minute mixing, 0.5-minute waiting, and 2-minute measuring to perform the test. […]

Consider `Cc1c(NC(=O)c2cc(C(N)=O)nc3cc(F)ccc23)c(C(F)(F)F)nn1Cc1ccc(C#N)cc1` [BAY-876, N^4-[1-(4-cyanobenzyl)-5-methyl-3-(trifluoromethyl)-1H-pyrazol-4-yl]-7-fluoroquinoline-2,4-dicarboxamide], for which, on GLUT1, the “potency for the GLUT1 transporter” value is “single-digit, nanomolar”; the “selectivity factor for GLUT1 in comparison with GLUT2, GLUT3 and GLUT4” value is greater than 100.
As for `O=c1c(-c2ccc(Cl)c(Cl)c2)coc2cc(OCCN3CCN(CCO)CC3)ccc12` [DBI-6, 3-(3,4-dichlorophenyl)-7-(2-(4-(2-hydroxyethyl)piperazin-1-yl)ethoxy)-4H-chromen-4-one], the “ETC complex inhibited (conclusion of Seahorse assays)” value in the assay on mitochondrial complex I (ETC complex-specific inhibitors and PMP-permeabilized cells) is “complex I inhibitor”. For the same compound, the pyruvate/NADH-linked respiration entry in the assay with mitochondrial complex I (PMP-permeabilized CRC cells) is listed as “reduced pyruvate/NADH-linked respiration”.

The values are drawn from patent publication US20250042880A1 (UNIVERSITY OF KENTUCKY RESEARCH FOUNDATION, priority 2021, published 2025).
